Legend:
C57BL/6J mice = test: Estimation of urinary glucose in C57BL/6J mice; format: in vivo, mouse; settings: urine collected over 24 h
Description: Estimation of Urinary Glucose in C57BL/6J Mice
C57BL/6J mice were fasted 4 h before drug treatment. Fasted mice were weighed and randomized into different groups based on their body weight (n=6). At time T0 test compounds and standard compounds suspended in 0.25% CMC or PEG 400 formulation, were administered to respective groups and kept in metabolic cages (6 mice/cage) after dosing. Animals were fed after drug administration and urine was collected over a period of 24 h. Urinary volume was measured and urinary glucose was estimated using Merckotest Glucose Reagent (Merck Specialities Pvt. Ltd., India).

mouse SGLT-2 = biological target: T1, mouse SGLT-2 (Mus musculus, UniProt Q923I7); test: Methyl-α-D-[U-14C]Glucopyranoside uptake assay for SGLT-2 in CHO-K1 cells expressing mSGLT-2; format: cell-based; settings: N.E. = Not Effective
T1 construct: Full-length mouse SGLT-2 cDNA was amplified from C57BL/6J mouse kidneys and introduced in the pcDNA3.1(+) expression vector; expressed in transfected cells
T1 sequence (Q923I7 1-670): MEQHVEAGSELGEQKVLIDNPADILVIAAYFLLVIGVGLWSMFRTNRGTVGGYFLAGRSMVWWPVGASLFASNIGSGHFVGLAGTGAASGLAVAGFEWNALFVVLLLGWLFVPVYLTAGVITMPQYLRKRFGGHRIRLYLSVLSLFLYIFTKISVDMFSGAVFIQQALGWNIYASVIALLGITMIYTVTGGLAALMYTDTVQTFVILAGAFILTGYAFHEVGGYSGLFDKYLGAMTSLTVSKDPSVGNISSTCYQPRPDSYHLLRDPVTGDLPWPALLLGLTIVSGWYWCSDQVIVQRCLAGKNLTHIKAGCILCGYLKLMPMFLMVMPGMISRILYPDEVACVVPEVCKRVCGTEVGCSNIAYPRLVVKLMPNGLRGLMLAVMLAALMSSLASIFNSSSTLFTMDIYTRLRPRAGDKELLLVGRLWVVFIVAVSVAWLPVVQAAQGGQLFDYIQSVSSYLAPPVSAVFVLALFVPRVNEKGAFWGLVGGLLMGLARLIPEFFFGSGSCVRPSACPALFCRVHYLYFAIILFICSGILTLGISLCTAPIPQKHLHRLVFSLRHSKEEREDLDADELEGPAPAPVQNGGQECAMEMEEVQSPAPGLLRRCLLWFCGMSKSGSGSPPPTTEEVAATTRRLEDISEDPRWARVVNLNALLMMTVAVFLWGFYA
Description: Preparation of Mouse SGLT-2 Expressing Cells
Full-length mouse SGLT-2 cDNA was amplified from C57BL/6J mouse kidneys and introduced in the pcDNA3.1(+) expression vector (Invitrogen, Inc.) and propagated in Escherichia coli strain DH5α using Luria-Bertani (LB) medium containing ampicillin. […] Stably transfected cells were selected using G418 antibiotic selection pressure.
Methyl-α-D-[U-^14C]Glucopyranoside Uptake Assay for SGLT-2
(§1) Cells expressing mSGLT-2 were seeded on 96-well tissue culture plates (Greiner, Inc.) in RPMI containing 10% FBS and 400 μg/mL G418 (0.8×10^5 cells per well in 200 μL medium) and incubated at 37° C. under 5% carbon dioxide for 24 h prior to the assay. Cells were washed twice with 200 μL of either sodium buffer (140 mM NaCl, 4.7 mM KCl, 2.2 mM CaCl2, 1.2 mM MgCl2, 10 mM Tris/Hepes, pH 7.4) or sodium-free buffer (137 mM N-methyl-glucamine, 4.7 mM KCl, 2.2 mM CaCl2, 1.2 mM MgCl2, 10 mM Tris/Hepes, pH 7.4). Reaction mixture containing test compounds at different concentrations diluted in assay buffer, 0.1 mM unlabeled Methyl-α-D-glucopyranoside and 1 μCi/well methyl-α-D[U-^14C]glucopyranoside (American Radiochemicals) was added per well of a 96-well plate and incubated at 37° C. for 1 h. Cells were washed thrice with 200 μL of wash buffer (140 mM NaCl, 4.7 mM KCl, 2.2 mM CaCl2, 1.2 mM MgCl2, 10 mM Tris/Hepes, pH 7.4 containing 500 μM phlorizin) and lysed using 50 μL of 0.25N NaOH. Methyl-α-D[U-^14C]glucopyranoside uptake was quantitated using a Top count scintillation counter (PerkinElmer, Inc.). All the test compounds were assayed in triplicates.

human SGLT-1 = biological target: T2, human SGLT-1 (Homo sapiens, UniProt P13866); test: Methyl-α-D-[U-14C]Glucopyranoside uptake assay for SGLT-1 in CHO-K1 cells expressing hSGLT-1; format: cell-based; settings: N.E. = Not Effective
T2 construct: Full-length human SGLT-1 cDNA in the pCMV-XL-Neo expression vector was obtained from Origene Corporation
T2 sequence (P13866 1-664): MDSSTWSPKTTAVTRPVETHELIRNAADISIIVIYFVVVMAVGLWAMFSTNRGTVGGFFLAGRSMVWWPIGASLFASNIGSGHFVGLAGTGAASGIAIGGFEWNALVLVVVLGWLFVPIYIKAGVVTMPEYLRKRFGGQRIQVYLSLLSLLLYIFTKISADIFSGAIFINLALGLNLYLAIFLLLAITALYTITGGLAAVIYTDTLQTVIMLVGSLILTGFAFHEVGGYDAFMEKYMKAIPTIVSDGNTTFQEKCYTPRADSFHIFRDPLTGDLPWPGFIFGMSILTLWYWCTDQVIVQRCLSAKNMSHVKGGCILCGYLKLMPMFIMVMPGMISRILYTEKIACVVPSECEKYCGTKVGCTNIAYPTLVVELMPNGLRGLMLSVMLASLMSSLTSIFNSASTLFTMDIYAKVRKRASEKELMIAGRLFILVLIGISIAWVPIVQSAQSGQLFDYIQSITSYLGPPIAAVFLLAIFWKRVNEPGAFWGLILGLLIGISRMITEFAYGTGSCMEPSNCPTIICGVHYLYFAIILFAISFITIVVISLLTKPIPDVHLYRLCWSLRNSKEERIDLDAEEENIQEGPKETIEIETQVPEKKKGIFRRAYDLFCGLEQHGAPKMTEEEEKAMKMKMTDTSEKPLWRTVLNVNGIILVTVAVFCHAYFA
Description: Preparation of Human SGLT-1 Expressing Cells
Full-length human SGLT-1 cDNA in the pCMV-XL-Neo expression vector was obtained from Origene Corporation and propagated in Escherichia coli strain DH5α using Luria-Bertani (LB) medium containing ampicillin. […] Stably transfected cells were selected using G418 antibiotic selection pressure.
Methyl-α-D-[U-^14C]Glucopyranoside Uptake Assay for SGLT-1
as §1, with “hSGLT-1” for “mSGLT-2”, “800 μg/ml” for “400 μg/mL”, “compounds” for “compounds at different concentrations”, “1” for “0.1”, “methyl-α-D-[U-^14C]glucopyranoside” for “methyl-α-D[U-^14C]glucopyranoside”, “Methyl-α-D-[U-^14C]glucopyranoside” for “Methyl-α-D[U-^14C]glucopyranoside”

Rats = test: Estimation of urinary glucose in rat; format: in vivo; settings: urine collected over 24 hrs
Description: Estimation of Urinary Glucose in Rat
Rats were fasted overnight (14 hrs) before drug treatment. Fasted rats were weighed and randomized into different groups based on their body weight (n=4). At time To test compounds and standard compound suspended in 0.25% C.M.C. or PEG 400 formulation were administered to respective groups and kept the animals in metabolic cages (1 rat/cage) after dosing. Animals were fed after drug administration and urine was collected over a period of 24 hrs. Urine volume was measured and urinary glucose was estimated using Merckotest Glucose Reagent (Merck Specialities Pvt. Ltd., India).

With “1-(4-(2-chloro-5-((2S,3R,4R,5S,6R)-3,4,5-trihydroxy-6-(hydroxymethyl)tetrahydro-2H-pyran-2-yl)benzyl)phenyl)ethanone O-methyl oxime [Compound 2]” the “UGE in mice (in mg/g of feed consumed) at 3 mpk” value (C57BL/6J mice) was 88.9 mg/g of feed consumed, the “% inhibition of Methyl-α-D-[U-14C] Glucopyranoside uptake (CHO-K1 cells) mediated by SGLT-2” value (“% inhibition … by SGLT-2” for short) (mouse SGLT-2; 0.1 nM compound) was 16.73% and the “% inhibition … by SGLT-2” value (mouse SGLT-2; 1 nM compound) was 26.19%. For the same substance, the “% inhibition … by SGLT-2” value (mouse SGLT-2; 10 nM compound) was 73.13%, the “% inhibition … by SGLT-2” value (mouse SGLT-2; 100 nM compound) was 92.85% and the “% inhibition of Methyl-α-D-[U-14C] Glucopyranoside uptake (CHO-K1 cells) mediated by SGLT-1” value (shortened to “% inhibition … by SGLT-1”) (human SGLT-1; 100 nM compound) was “N.E”. The “% inhibition … by SGLT-1” value (human SGLT-1; 1 μM compound) was 33.10%, the “% inhibition … by SGLT-1” value (human SGLT-1; 10 μM compound) was 78.87% and the “UGE in rat (in mg/g of feed consumed) at 3 mpk” value (Rats) was 68.6 mg/g of feed consumed.

Reference: US20140228303A1, “NOVEL SGLT INHIBITORS” (Panacea Biotec Ltd, priority 2011, published 2014)
